Results from ChEMBL document CHEMBL3576838, “Synthesis and in vitro and in vivo biological evaluation of substituted nitroquinoxalin-2-ones and 2,3-diones as novel trichomonacidal agents” (Eur J Med Chem, 2015).

Legend:
[1] = Selectivity index, ratio of CC50 for African green monkey Vero cells to IC50 for Trichomonas vaginalis JH31A#4 trophozite; assay type: functional
[2] = Cytotoxicity against African green monkey Vero cells assessed as inhibition of cell growth after 24 hrs by resazurin redox dye based fluorimetric microtiter method; settings: chlorocebus sabaeus
Trichomonas vaginalis [3] = assay: Trichomonicidal activity against Trichomonas vaginalis JH31A#4 trophozite assessed as inhibition of parasite growth at 18.75 uM after 24 hrs by resazurin redox dye based fluorimetric microtiter method; assay type: functional; settings: JH31A#4, 24 h
Trichomonas vaginalis [4] = assay: Trichomonicidal activity against Trichomonas vaginalis JH31A#4 trophozite assessed as inhibition of parasite growth at 9.37 uM after 24 hrs by resazurin redox dye based fluorimetric microtiter method; assay type: functional; settings: JH31A#4, 24 h
Trichomonas vaginalis [5] = assay: Trichomonicidal activity against Trichomonas vaginalis JH31A#4 trophozite assessed as inhibition of parasite growth at 37.5 uM after 24 hrs by resazurin redox dye based fluorimetric microtiter method; assay type: functional; settings: JH31A#4, 24 h
Trichomonas vaginalis [6] = assay: Trichomonicidal activity against Trichomonas vaginalis JH31A#4 trophozite assessed as inhibition of parasite growth at 75 uM after 24 hrs by resazurin redox dye based fluorimetric microtiter method; assay type: functional; settings: JH31A#4, 24 h
Trichomonas vaginalis [7] = assay: Trichomonicidal activity against Trichomonas vaginalis JH31A#4 trophozite assessed as inhibition of parasite growth at 300 uM after 24 hrs by resazurin redox dye based fluorimetric microtiter method; assay type: functional; settings: JH31A#4, 24 h
Vero = assay: Cytotoxicity against African green monkey Vero cells at 300 uM after 24 hrs by resazurin redox dye based fluorimetric microtiter method; assay type: cell-based; settings: chlorocebus sabaeus
Trichomonas vaginalis [8] = assay: Trichomonicidal activity against Trichomonas vaginalis JH31A#4 trophozite assessed as inhibition of parasite growth at 150 uM after 24 hrs by resazurin redox dye based fluorimetric microtiter method; assay type: functional; settings: JH31A#4, 24 h
Trichomonas vaginalis [9] = assay: Trichomonicidal activity against Trichomonas vaginalis JH31A#4 trophozite assessed as inhibition of parasite growth after 24 hrs by resazurin redox dye based fluorimetric microtiter method; assay type: functional, organism-based; settings: JH31A#4, 24 h
Trichomonas vaginalis [10] = assay: Trichomonicidal activity against Trichomonas vaginalis JH31A#4 trophozite assessed as inhibition of parasite growth at 10 ug/ml after 24 hrs by resazurin redox dye based fluorimetric microtiter method; assay type: functional; settings: JH31A#4, 24 h, read-out: GI
Trichomonas vaginalis [11] = assay: Trichomonicidal activity against Trichomonas vaginalis C-1:NIH trophozoites infected in NMRI mouse assessed as reduction of pathogenicity at 25 mg/kg/day, po administered for 7 days from day 3 to day 10 post-infection measured at day 15 post-infection; assay type: functional

CN1C(=O)CN(CCCO)c2ccc([N+](=O)[O-])cc21
Ratio CC50/IC50 [1]: >10
CC50 at 24 h [2]: > 300 µM
inhibition at 18.75 µM (Trichomonas vaginalis [3]): 19%
inhibition at 9.37 µM (Trichomonas vaginalis [4]): 6.39%
inhibition at 37.5 µM (Trichomonas vaginalis [5]): 33.4%
inhibition at 75 µM (Trichomonas vaginalis [6]): 48.4%
inhibition at 300 µM (Trichomonas vaginalis [7]): 94.8%
Activity (Vero): 5.07%
inhibition at 150 µM (Trichomonas vaginalis [8]): 77.2%
IC50 (Trichomonas vaginalis [9]): 60.7 µM

O=C1Nc2cc([N+](=O)[O-])ccc2N2CCCOC12 (stereo not drawn)
Ratio CC50/IC50 [1]: >10
CC50 at 24 h [2]: > 300 µM
inhibition at 18.75 µM (Trichomonas vaginalis [3]): 12.1%
inhibition at 9.37 µM (Trichomonas vaginalis [4]): 0.98%
inhibition at 37.5 µM (Trichomonas vaginalis [5]): 51.3%
inhibition at 75 µM (Trichomonas vaginalis [6]): 77.4%
inhibition at 300 µM (Trichomonas vaginalis [7]): 99.5%
Activity (Vero): 2.08%
inhibition at 150 µM (Trichomonas vaginalis [8]): 92.8%
IC50 (Trichomonas vaginalis [9]): 41.9 µM

Cn1c(=O)c(=O)[nH]c2cc([N+](=O)[O-])ccc21
inhibition at 18.75 µM (Trichomonas vaginalis [3]): 17.8%
inhibition at 9.37 µM (Trichomonas vaginalis [4]): 8.89%
inhibition at 37.5 µM (Trichomonas vaginalis [5]): 33.7%
inhibition at 75 µM (Trichomonas vaginalis [6]): 38.6%
inhibition at 300 µM (Trichomonas vaginalis [7]): 41.7%
inhibition at 150 µM (Trichomonas vaginalis [8]): 39%
IC50 (Trichomonas vaginalis [9]): 111 µM

O=c1[nH]c2cc([N+](=O)[O-])ccc2n(CCCCCl)c1=O
inhibition at 18.75 µM (Trichomonas vaginalis [3]): 12.7%
inhibition at 9.37 µM (Trichomonas vaginalis [4]): 8.25%
inhibition at 37.5 µM (Trichomonas vaginalis [5]): 18%
inhibition at 75 µM (Trichomonas vaginalis [6]): 21.4%
inhibition at 300 µM (Trichomonas vaginalis [7]): 94.9%
inhibition at 150 µM (Trichomonas vaginalis [8]): 40.6%
IC50 (Trichomonas vaginalis [9]): 151 µM

O=c1[nH]c2cc([N+](=O)[O-])ccc2n(CCCCCCl)c1=O
inhibition at 18.75 µM (Trichomonas vaginalis [3]): 0.42%
inhibition at 9.37 µM (Trichomonas vaginalis [4]): 0%
inhibition at 37.5 µM (Trichomonas vaginalis [5]): 0.85%
inhibition at 75 µM (Trichomonas vaginalis [6]): 9.7%
inhibition at 300 µM (Trichomonas vaginalis [7]): 94%
inhibition at 150 µM (Trichomonas vaginalis [8]): 47.1%
IC50 (Trichomonas vaginalis [9]): 147 µM

O=c1[nH]c2cc([N+](=O)[O-])ccc2n(CCCCCBr)c1=O
inhibition at 18.75 µM (Trichomonas vaginalis [3]): 4.09%
inhibition at 9.37 µM (Trichomonas vaginalis [4]): 0%
inhibition at 37.5 µM (Trichomonas vaginalis [5]): 11.6%
inhibition at 75 µM (Trichomonas vaginalis [6]): 20.1%
inhibition at 300 µM (Trichomonas vaginalis [7]): 79.6%
inhibition at 150 µM (Trichomonas vaginalis [8]): 49%
IC50 (Trichomonas vaginalis [9]): 145 µM

O=c1[nH]c2cc([N+](=O)[O-])ccc2n(CCCCCCCl)c1=O
inhibition at 18.75 µM (Trichomonas vaginalis [3]): 17%
inhibition at 9.37 µM (Trichomonas vaginalis [4]): 9.43%
inhibition at 37.5 µM (Trichomonas vaginalis [5]): 15.1%
inhibition at 75 µM (Trichomonas vaginalis [6]): 45.1%
inhibition at 300 µM (Trichomonas vaginalis [7]): 95.8%
inhibition at 150 µM (Trichomonas vaginalis [8]): 70.8%
IC50 (Trichomonas vaginalis [9]): 106 µM

Cn1c(=O)c(=O)n(C)c2cc([N+](=O)[O-])ccc21
inhibition at 18.75 µM (Trichomonas vaginalis [3]): 15.8%
inhibition at 9.37 µM (Trichomonas vaginalis [4]): 12.9%
inhibition at 37.5 µM (Trichomonas vaginalis [5]): 18.6%
inhibition at 75 µM (Trichomonas vaginalis [6]): 22.5%
inhibition at 300 µM (Trichomonas vaginalis [7]): 61.4%
inhibition at 150 µM (Trichomonas vaginalis [8]): 35.4%
IC50 (Trichomonas vaginalis [9]): 235 µM

Cn1c(=O)c(=O)n(CCCCCl)c2ccc([N+](=O)[O-])cc21
inhibition at 18.75 µM (Trichomonas vaginalis [3]): 19.9%
inhibition at 9.37 µM (Trichomonas vaginalis [4]): 11.8%
inhibition at 37.5 µM (Trichomonas vaginalis [5]): 20.1%
inhibition at 75 µM (Trichomonas vaginalis [6]): 36.2%
inhibition at 300 µM (Trichomonas vaginalis [7]): 68.5%
inhibition at 150 µM (Trichomonas vaginalis [8]): 52.7%
IC50 (Trichomonas vaginalis [9]): 179 µM

Cn1c(=O)c(=O)n(CCCCCCl)c2ccc([N+](=O)[O-])cc21
Ratio CC50/IC50 [1]: >10
CC50 at 24 h [2]: > 300 µM
inhibition at 18.75 µM (Trichomonas vaginalis [3]): 40.1%
inhibition at 9.37 µM (Trichomonas vaginalis [4]): 22.1%
inhibition at 37.5 µM (Trichomonas vaginalis [5]): 45.7%
inhibition at 75 µM (Trichomonas vaginalis [6]): 52.2%
inhibition at 300 µM (Trichomonas vaginalis [7]): 70.2%
Activity (Vero): 0%
inhibition at 150 µM (Trichomonas vaginalis [8]): 66.2%
IC50 (Trichomonas vaginalis [9]): 61.4 µM

Cn1c(=O)c(=O)n(CCCCCBr)c2ccc([N+](=O)[O-])cc21
inhibition at 18.75 µM (Trichomonas vaginalis [3]): 21.5%
inhibition at 9.37 µM (Trichomonas vaginalis [4]): 17.8%
inhibition at 37.5 µM (Trichomonas vaginalis [5]): 26.9%
inhibition at 75 µM (Trichomonas vaginalis [6]): 40.9%
inhibition at 300 µM (Trichomonas vaginalis [7]): 51.1%
inhibition at 150 µM (Trichomonas vaginalis [8]): 42.8%
IC50 (Trichomonas vaginalis [9]): 256 µM

Cn1c(=O)c(=O)n(CCCCCCCl)c2ccc([N+](=O)[O-])cc21
Ratio CC50/IC50 [1]: >10
CC50 at 24 h [2]: > 300 µM
inhibition at 18.75 µM (Trichomonas vaginalis [3]): 42.1%
inhibition at 9.37 µM (Trichomonas vaginalis [4]): 31.6%
inhibition at 37.5 µM (Trichomonas vaginalis [5]): 53.1%
inhibition at 75 µM (Trichomonas vaginalis [6]): 75.5%
inhibition at 300 µM (Trichomonas vaginalis [7]): 92.6%
Activity (Vero): 14.14%
inhibition at 150 µM (Trichomonas vaginalis [8]): 84.7%
IC50 (Trichomonas vaginalis [9]): 25.4 µM

CN1C(=O)CN(CCCCCCl)c2ccc([N+](=O)[O-])cc21
inhibition of growth at 10 µg/mL (Trichomonas vaginalis [10]): 73%

Cc1ncc([N+](=O)[O-])n1CCO [METRONIDAZOLE]
Ratio CC50/IC50 [1]: >10
CC50 at 24 h [2]: > 600 µM
inhibition at 18.75 µM (Trichomonas vaginalis [3]): 96%
inhibition at 9.37 µM (Trichomonas vaginalis [4]): 82.7%
inhibition at 37.5 µM (Trichomonas vaginalis [5]): 99.4%
inhibition at 75 µM (Trichomonas vaginalis [6]): 100%
inhibition at 300 µM (Trichomonas vaginalis [7]): 100%
Activity (Vero): 0%
inhibition in vivo at 25 mg/kg/day (Trichomonas vaginalis [11]): 94%
inhibition at 150 µM (Trichomonas vaginalis [8]): 100%
IC50 (Trichomonas vaginalis [9]): 4.16 µM
